Assay results as given in patent US12605399B2, “Compositions for CFTR MRNA therapy” (TRANSLATE BIO, INC., priority 2020, dated 2026).

System: male CD1 mice
Test: Luciferase production in the lung after intratracheal FFL mRNA-LNP
Assay type: in vivo, mouse
Conditions: for potency as determined by the average radiance detected in mouse lungs: FFL mRNA-LNP, intratracheal, about 5 hours post-dose; for performance in liposomes administered through pulmonary delivery via nebulization: mouse, in vivo
Procedure: About 150 cationic lipids were tested. (FIG. 7). Each cationic lipid was used in preparing lipid nanoparticles encapsulating mRNA encoding firefly luciferase protein (FFL mRNA) according to methods known in the art. For example, suitable methods for mRNA encapsulation include methods described in International Publication Nos. WO2016/004318 and WO 2018/089801, which is hereby incorporated by reference in its entirety. The tested lipid nanoparticles comprised a lipid component consisting of a cationic lipid, a non-cationic lipid (DOPE), a PEG-modified lipid (DMG-PEG2K), and optionally cholesterol.
Lipid nanoparticle formulations comprising FFL mRNA were administered to male CD1 mice by a single intratracheal administration via nebulization using a Microsprayer®. At approximately 5 hours post-dose, the animals were dosed with luciferin by intraperitoneal injection and all animals were imaged using an IVIS imaging system to measure luciferase production in the lung. […] Some cationic lipids remarkably had greater than 50-fold increase in pulmonary protein expression as compared to other cationic lipids.

CCCCC/C=C\C/C=C\CCCCCCCC(=O)OCC(COC(=O)CCCCCCC/C=C\C/C=C\CCCCC)(COC(=O)CCCCCCC/C=C\C/C=C\CCCCC)NCCS(=O)(=O)NCCN(C)C [GL-TES-SA-DME-E18-2, 2-((2-(N-(2-(dimethylamino)ethyl)sulfamoyl)ethyl)amino)-2-((((9Z,12Z)-octadeca-9,12-dienoyl)oxy)methyl)propane-1,3-diyl (9Z,9′Z,12Z,12′Z)-bis(octadeca-9,12-dienoate)]
potency as determined by the average radiance detected in mouse lungs: particularly high potency | performance in liposomes administered through pulmonary delivery via nebulization: performed particularly well

CCCCC/C=C\C/C=C\CCCCCCCC(=O)OCC(COC(=O)CCCCCCC/C=C\C/C=C\CCCCC)(COC(=O)CCCCCCC/C=C\C/C=C\CCCCC)NCCS(=O)(=O)NCCCN(C)C [GL-TES-SA-DMP-E18-2]
potency as determined by the average radiance detected in mouse lungs: particularly high potency | performance in liposomes administered through pulmonary delivery via nebulization: performed particularly well

CCCCCCCCC(O)CN(CCCC(=O)OCCN1CC(C)N(CCOC(=O)CCCN(CC(O)CCCCCCCC)CC(O)CCCCCCCC)CC1C)CC(O)CCCCCCCC (stereo not shown) [HEP-E3-E10]
potency as determined by the average radiance detected in mouse lungs: particularly high potency | performance in liposomes administered through pulmonary delivery via nebulization: performed particularly well

CCCCCCCCC(O)CN(CCCCC(=O)OCCN1CC(C)N(CCOC(=O)CCCCN(CC(O)CCCCCCCC)CC(O)CCCCCCCC)CC1C)CC(O)CCCCCCCC (stereo not shown) [HEP-E4-E10]
potency as determined by the average radiance detected in mouse lungs: particularly high potency | performance in liposomes administered through pulmonary delivery via nebulization: performed particularly well

CC(C)CCCC(C)C1CCC2C3CC=C4CC(OC(=O)CCc5cnc[nH]5)CCC4(C)C3CCC12C (stereo not shown) [ICE, imidazole cholesterol ester, reference compound]
historical radiance/expression of pulmonary-delivered FFL mRNA LNP (mice, nebulized FFL mRNA in LNP with this cationic lipid): around 10^4 p/s/cm^2sr

CCCCCCCCOC(=O)CC(CC(=O)OCCCCCCCC)(OC(=O)CCN(C)C)C(=O)OCCCCCCCC [TL1-01D-DMA, trioctyl 2-((3-(dimethylamino)propanoyl)oxy)propane-1,2,3-tricarboxylate]
potency as determined by the average radiance detected in mouse lungs: particularly high potency | performance in liposomes administered through pulmonary delivery via nebulization: performed particularly well

CCCCCCCCCCCCCCOC(=O)CC(CC(=O)OCCCCCCCCCCCCCC)(OC(=O)CCN(C)C)C(=O)OCCCCCCCCCCCCCC [TL1-04D-DMA]
potency as determined by the average radiance detected in mouse lungs: particularly high potency | performance in liposomes administered through pulmonary delivery via nebulization: performed particularly well
